{"source": "paper PMC4001449", "about": "“Thienoquinolines as Novel Disruptors of the PKCε/RACK2 Protein–Protein Interaction” (Journal of Medicinal Chemistry, 2014)", "origin": "cited, not measured here", "conditions_in_all_cases": "cited from earlier work", "key": {"ribonucleotide reductase": {"target": "ribonucleotide reductase", "parameters": "method as in PMID 11668483"}, "PKCη": {"target": "PKCη (Homo sapiens, UniProt P24723)", "sequence (P24723 whole entry)": "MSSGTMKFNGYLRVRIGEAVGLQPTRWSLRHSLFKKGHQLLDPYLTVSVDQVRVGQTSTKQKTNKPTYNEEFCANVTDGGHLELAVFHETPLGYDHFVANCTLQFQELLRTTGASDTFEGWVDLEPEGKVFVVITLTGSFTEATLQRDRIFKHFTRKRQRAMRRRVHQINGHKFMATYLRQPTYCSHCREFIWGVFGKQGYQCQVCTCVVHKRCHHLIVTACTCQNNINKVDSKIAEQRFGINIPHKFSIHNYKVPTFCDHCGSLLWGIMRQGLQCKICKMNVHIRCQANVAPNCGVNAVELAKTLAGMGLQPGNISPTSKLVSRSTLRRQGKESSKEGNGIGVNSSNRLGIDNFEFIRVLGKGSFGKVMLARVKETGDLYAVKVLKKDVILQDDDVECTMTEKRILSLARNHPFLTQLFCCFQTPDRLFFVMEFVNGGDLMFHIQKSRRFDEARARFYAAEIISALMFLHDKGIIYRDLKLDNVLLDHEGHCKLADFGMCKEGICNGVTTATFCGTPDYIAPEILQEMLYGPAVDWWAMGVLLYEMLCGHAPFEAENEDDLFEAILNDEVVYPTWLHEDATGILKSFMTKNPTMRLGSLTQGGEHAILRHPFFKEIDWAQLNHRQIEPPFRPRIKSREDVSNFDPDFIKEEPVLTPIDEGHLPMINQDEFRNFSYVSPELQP", "parameters": "method as in PMID 21186251"}, "PKCε": {"target": "T1, PKCε (Homo sapiens, UniProt Q02156)", "T1 sequence (Q02156 1-737)": "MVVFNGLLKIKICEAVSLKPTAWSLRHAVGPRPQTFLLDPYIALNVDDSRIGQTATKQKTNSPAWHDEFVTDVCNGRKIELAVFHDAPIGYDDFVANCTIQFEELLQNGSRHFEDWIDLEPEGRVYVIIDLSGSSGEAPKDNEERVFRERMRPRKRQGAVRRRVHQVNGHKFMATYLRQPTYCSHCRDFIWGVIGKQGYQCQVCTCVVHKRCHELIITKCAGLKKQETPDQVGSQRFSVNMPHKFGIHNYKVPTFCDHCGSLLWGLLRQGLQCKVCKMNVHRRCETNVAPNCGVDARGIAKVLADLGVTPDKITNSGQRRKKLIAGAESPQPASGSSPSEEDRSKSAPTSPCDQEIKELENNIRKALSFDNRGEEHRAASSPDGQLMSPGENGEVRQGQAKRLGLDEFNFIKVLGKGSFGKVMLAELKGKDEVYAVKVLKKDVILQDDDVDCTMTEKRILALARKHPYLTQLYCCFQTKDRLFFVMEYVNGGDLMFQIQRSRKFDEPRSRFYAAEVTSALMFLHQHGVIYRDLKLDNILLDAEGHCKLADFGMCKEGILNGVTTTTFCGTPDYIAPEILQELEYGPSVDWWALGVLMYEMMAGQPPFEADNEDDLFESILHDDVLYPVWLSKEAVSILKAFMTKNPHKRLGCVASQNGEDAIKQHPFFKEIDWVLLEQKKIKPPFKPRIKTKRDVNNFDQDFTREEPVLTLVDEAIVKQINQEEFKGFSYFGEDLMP", "parameters": "method as in PMID 21186251"}, "[1]": {"system": "interaction of PKCι and its adaptor protein Par6", "parameters": "method as in PMID 16861740"}}, "note": "pIC50: −log10 of the molar value.", "data": [{"molecule": "hydroxyurea", "values": [{"measurement": "pIC50", "setting": "ribonucleotide reductase", "value": 4.43}]}, {"molecule": "O=C1NC(=O)N(Cc2ccccc2)C(=O)/C1=C\\c1ccc2c(c1)OCO2", "note": "[BAS 02104951]", "values": [{"measurement": "Direct inhibition of PKCη", "setting": "PKCη", "value": "inhibited"}, {"measurement": "Direct inhibition of PKCε", "setting": "PKCε", "value": "inhibited"}]}, {"molecule": "O=C(O)CC([S-])C(=O)O.[Au+]", "note": "(stereo not shown) [aurothiomalate]", "values": [{"measurement": "Active concentration range, prevention of PKCι/Par6 interaction", "setting": "[1]", "value": "~10", "unit": "µM"}]}]}
